Patent US20200000843A1, “COMPOSITION FOR IMPROVEMENT OR PREVENTION OF PARKINSONIAN SYNDROME” (MiZ Company Limited, priority 2018, published 2020)
Where two headings read alike, the source gives them in different places.

How the values were obtained:
[1] = compared with H2; cited from earlier work
[2] = tested on: Parkinson's disease patient
Experimental: A Parkinson's disease patient (medical history: about 8 years) inhaled a mixed gas of hydrogen and air using a gaseous hydrogen inhalation apparatus (MHG-2000α (registered trademark); MiZ Company Limited) for about 90 minutes per day over about 2 months. Here, the mixed gas was inhaled every 2 or 3 days over first about 3 weeks and every day over subsequent about 5 weeks. The hydrogen concentration in MHG-2000α is about 6.0 to 7.0% by volume (hydrogen generation rate: about 140 ml/min).
A Parkinson's disease patient one (medical history: about 6 years) inhaled a mixed gas of hydrogen and air using a gaseous hydrogen inhalation apparatus (MHG-2000α (registered trademark); MiZ Company Limited) for about 90 minutes or about 120 minutes per day. Here, the mixed gas was inhaled every day over about 4.5 months. The hydrogen concentration in MHG-2000α is about 6.0 to 7.0% by volume (hydrogen generation rate: about 140 ml/min).

[3] = tested on: patient with multiple system atrophy; assay: Hydrogen water ingestion / hydrogen gas inhalation by a patient with multiple system atrophy (Case 3); format: in vivo, human; conditions: about 6.0 to 7.0% hydrogen, about 1.5 to about 2 hours every day, early stage after the start of the inhalation
Experimental: The hydrogen concentration in MHG-2000α is about 6.0 to 7.0% (hydrogen generation rate: about 140 ml/min).

[4] = tested on: Parkinson's disease patient; remark: listed apart in the source
[5] = tested on: Parkinson's disease model rat; conditions: cited from earlier work
[6] = Case 1, first inhalation for 90 minutes, about 6.0 to 7.0% by volume hydrogen
[7] = Case 2, about 4 months after the start of inhalation
[8] = Case 2, immediately after inhalation for about 90 or about 120 minutes per day, substantially every day over about 1 month

[2H][2H] [D2, deuterium]
superoxide scavenging effect [1]: higher than that of H2

[HH] [hydrogen gas, molecular hydrogen]
posture forward-bending in a dogleg shape ([2]; Case 1, 90 minutes after the start of first inhalation): improved to a middle between the upright state and the dogleg shape state | complexion, voice, movement, gait and the like ([2]; Case 1, about 6.0 to 7.0% by volume hydrogen, about 90 minutes per day over about 2 months): improved to be almost comparable to a healthy person | time after start of inhalation at which shaking of hands was stopped [2, 6]: about 30 minutes | time after start of inhalation at which shaking under the jaw was stopped [2, 6]: about 40 minutes | time after start of inhalation at which shaking of the hands was stopped ([2]; Case 2 (person one), first inhalation, about 6.0 to 7.0% by volume hydrogen): about 45 minutes | bending of the spine [2, 7]: reduced as compared to the symptom in the early stage | shaking of the hands and the mouth [2, 7]: too small to be recognized unless a careful observation is made | time taken for fastening buttons of clothing and for change of clothes [2, 7]: markedly shortened | bending of the waist compared to before the inhalation ([2]; Case 2, about 90 minutes after the start of first inhalation): improved | time after start of inhalation at which shaking of the mouth was stopped ([2]; Case 2, first inhalation, about 6.0 to 7.0% by volume hydrogen): about 55 minutes | forward-bending posture [2, 8]: improved to a reasonably upright state | shaking of the hands and legs [2, 8]: did not shake, or shook slightly | shaking of the mouth [2, 8]: shook slightly | gait [3]: became able to walk steadily and without support | action tremors, VAS scale values of 0 to 5.0 ([4]; Case 4, about 4% by volume hydrogen, about 20 minutes every day over 3 months, FIG. 1A): evidently improved | slowness of movement, VAS scale values of 0 to 5.0 ([4]; Case 4, about 4% by volume hydrogen, about 20 minutes every day over 3 months, FIG. 1B): evidently improved | tiny step gait, VAS scale values of 0 to 5.0 ([4]; Case 4, about 4% by volume hydrogen, about 20 minutes every day over 3 months, FIG. 1C): evidently improved | slowness of movement, VAS scale values of 0 to 5.0 ([4]; Case 5, about 6.0 to 7.0% by volume hydrogen, about 1 to 3 hours every day over 3 months, FIG. 2A): evidently improved | forward-bending posture, VAS scale values of 0 to 5.0 ([4]; Case 5, about 6.0 to 7.0% by volume hydrogen, about 1 to 3 hours every day over 3 months, FIG. 2B): evidently improved | rigidity, VAS scale values of 0 to 5.0 ([4]; Case 5, about 6.0 to 7.0% by volume hydrogen, about 1 to 3 hours every day over 3 months, FIG. 2C): evidently improved | bowel movement (constipation), VAS scale values of 0 to 5.0 ([4]; Case 5, about 6.0 to 7.0% by volume hydrogen, about 1 to 3 hours every day over 3 months, FIG. 2E): evidently improved | sleep (insomnia), VAS scale values of 0 to 5.0 ([4]; Case 5, about 6.0 to 7.0% by volume hydrogen, about 1 to 3 hours every day over 3 months, FIG. 2F): evidently improved | tiny step gait, VAS scale values of 0 to 5.0 ([4]; Case 5, over three months after the start of inhalation, FIG. 2D legend): improvements | advancement of symptoms ([5]; hydrogen gas (2%) continuously breathed): the symptoms were advanced | advancement of symptoms ([5]; hydrogen gas (2%) intermittently breathed): slightly lessened
